Data from patent US9617262B2, “Antibacterial cyclopental[C]pyrrole substituted 3,4-dihydro-1H-[1,8]naphthyridinones” (Janssen Sciences Ireland UC, priority 2011, dated 2017).
Converted amounts (≈) assume the structure as drawn.

Legend:
[1] = test system: Staphylococcus aureus NRS120; LZD-R; assay: Antimicrobial spectrum, broth microdilution MIC; type: cell-based; conditions: S. aureus NRS120
Method: Minimum Inhibitory Concentrations (MICs) were determined in accordance with the Clinical and Laboratory Standards Institute (CLSI) methodology against aerobic bacteria (CLSI M07-A8) (see Clinical and Laboratory Standards Institute. 2009. Methods for dilution antimicrobial susceptibility tests for bacteria that grow aerobically. CLSI document M07-A8, Vol. 29, No. 2.) by the broth microdilution method with cation-adjusted Mueller-Hinton broth (CA-MHB) medium for the majority of organisms, except for Haemophilus influenza, where Haemophilis test medium (HTM) broth was used. Descriptions of the individual organisms can be found in the table. Where possible, ATCC standard strains were tested.
The inoculum density for the susceptibility testing was standardized to give a final inoculum of approximately 5×10^5 CFU/mL.
Stock solutions of the compounds were prepared in DMSO at concentrations of 1 mg/mL. Linezolid was prepared in DMSO at a concentration of 2 mg/mL. Stock solutions of all compounds were diluted into CA-MHB to give a range of two-fold dilutions, depending upon the sensitivity of the organism being tested.

Human HelaM cells = assay: Cytotoxicity MTT assay (TOX HELAM); type: cell-based; conditions: 72 hours
Method: Cytotoxicity of the compounds was evaluated using the MTT assay. Human HelaM cells grown in 96-well plates were exposed to serial dilutions of the tested compounds (final volume of 0.2 ml) and incubated for 72 hours at 37° C. and 5% CO2. Inhibitors are typically varied over the range of 25 to 0.8 μM. The final DMSO concentration in the assay is 0.5%. MTT (3-(4,5-Dimethylthiazol-2-yl)-2,5-diphenyltetrazolium bromide, a tetrazole) was added and reduced to purple formazan only in living cells. Solubilization of the formazan crystals was achieved by adding 100 μl 2-propanol. Cell viability was determined by measuring the absorbance of the reduced formazan, giving a purple color, at 540 nm and 690 nm. The absorbance measured at 690 nm was automatically subtracted from the absorbance at 540 nm, to eliminate the effects of non-specific absorption. The percent cytotoxicity achieved by the compounds was calculated according to standard methods. Cytotoxicity is reported as CC50, the concentration that causes a 50% reduction in cell viability.
The results are depicted in the table D2 below (TOX HELAM).

[2] = In vivo pharmacokinetic and oral bioavailability; conditions: male Swiss mice
Method: The in vivo pharmacokinetics and oral bioavailability of the compound of the examples was/is investigated in male Swiss mice (fed) following single intravenous (i.v.) bolus and oral (p.o.) administration. For the i.v. and p.o. solution formulations, the compound was/is dissolved in a 20% HP-β-CD solution. The pH of the formulations was/is around pH 4. All i.v. formulations were isotonic.

S. aureus = assay: Antibacterial susceptibility testing: IC90 determination with 10% human serum (STA + 10% HS); type: cell-based, Staphylococcus aureus; conditions: human serum at a final concentration of 10%
Method: The following bacteria were used: Staphylococcus aureus ATCC 29213, methicillin-resistant Staphylococcus aureus (MRSA) ATCC 700788 and Escherichia coli ATCC 35218. The bacteria used in this study were grown overnight in flasks containing 100 ml Mueller-Hinton broth (Difco cat. nr. 0757-17) in sterile de-ionized water, with shaking, at 37° C. Stocks were store at −70° C. until use.
Bacteria were incubated on a tryptic soy agar plate containing 5% sheep blood (Becton Dickinson cat. nr. 254053) for 18-24 hours at 35° C. in aerobic conditions (first passage). For the second passage, fresh Mueller-Hinton broth is inoculated with 5-10 colonies and grown overnight at 35° C. until turbidity (reaching log-phase) in aerobic conditions is reached. The bacterial suspension is then adjusted to 0.5 McFarland density and further diluted 1:100 in Mueller Hinton broth medium. This is used as inoculum.
MIC assays were performed by the broth microdilution method in a 96-well format (flat-bottom microtitre plates) with a final volume of 0.1 ml Mueller Hinton broth containing two-fold serial dilutions of compounds and inoculated with 5×10^5 CFU/ml of bacteria (standard inoculum size according to CLSI guidelines). Inhibitors are typically varied over the range of 63 to 0.49 μM. The final DMSO concentration in the assay was 1.25% (maximum tolerable DMSO concentration=6%). In the assays where the effect of human serum on the activity of the compounds against S. aureus was tested, human serum was added at a final concentration of 10%. The plates were incubated at 35° C. for 16-20 hours. At the end of incubation the bacterial growth was quantified fluorometrically. For this, resazurin was added to all wells and the plates were re-incubated. The incubation time is dependent on the type of bacteria. A change in color from blue to pink indicated the growth of bacteria. The fluorescence was read in computer-controlled fluorometer (Fluoroskan Ascent FL, Labsystems) at an excitation wavelength 540 nm and an emission wavelength of 590 nm. The % growth inhibition achieved by the compounds was calculated according to standard methods. The IC90 (expressed in μg/ml) was defined as the 90% inhibitory concentration for bacterial growth. A panel of reference compounds were simultaneously tested for QC approval.
The results are depicted in the table D2 below (STA+10% HS).

[3] = test system: Methicillin-sensitive Staphylococcus aureus strain ATCC 29213; assay: In vivo efficacy, peritonitis model of S. aureus infection; conditions: IV, 20% CD + 2H2T, IP infection, inoculum 8.7 log10, female Swiss albino mice, 3 days post-infection
Description: The concept of studying the in vivo effect of an antibacterial compound by treating intraperitoneally infected mice was introduced in 1911 for optochin against pneumococci (Morgenroth and Levy, 1911). The popularity of the model comes from the ease of its use with short-duration experiments, reproducible infections and simple end-points.
Methicillin-sensitive Staphylococcus aureus strain ATCC 29213 was used to infect female Swiss albino mice. A Brain Heart Infusion (BHI) broth bacterial culture was inoculated the day before infection, incubated at 37° C. overnight and diluted in fresh BHI broth to the desired concentration. I.p. injection of ˜5×10^8-5×10^9 colony forming units (CFU) was performed in either of the lateral lower quadrants of the abdomen. After inoculation, mice were kept in their cages under daily observation for development of signs of infection or death. For the treatment of mice, both the p.o. and i.v. routes were used and each mouse was treated individually by gavage or by i.v. injection. Both solutions (p.o. and i.v.) and suspensions (p.o.) were tested in this model. The parameter used for monitoring the course of infection and the effect of treatment was death or survival of the animals over 3 days post-infection. […]

Structure (SMILES): O=C1CCc2cc(/C=C/C(=O)N3C[C@@H]4CC(c5ccccc5)=C[C@@H]4C3)cnc2N1 (single isomer, unassigned) [compound 14]
- MIC90 [1]: 0.03 µg/mL (≈ 0.0778 µM)
- TOX HELAM (222.125) CC50 (Human HelaM cells): >9.683 µg/mL
- AUC0-inf ([2]; i.v. 2.5 mg/kg): 7464 ng·h/mL
- Half life (t1/2) ([2]; i.v. 2.5 mg/kg): 2.7 h
- Plasma clearance Cl ([2]; i.v. 2.5 mg/kg): 5.5 mL/min/kg
- Vdz ([2]; i.v. 2.5 mg/kg): 1.3 L/kg
- C0 ([2]; i.v. 2.5 mg/kg, 20% HP-β-CD solution): 2929 ng/mL
- Oral bioavailability ([2]; p.o. 10 mg/kg vs i.v. 2.5 mg/kg): 72%
- AUC0-inf ([2]; p.o. 10 mg/kg): 21394 ng·h/mL
- Cmax ([2]; p.o. 10 mg/kg): 2950 ng/mL
- Half life (t1/2) ([2]; p.o. 10 mg/kg): 3.2 h
- Tmax ([2]; p.o. 10 mg/kg): 2.0 h
- STA + 10% HS (361.169) IC90 (S. aureus): 0.19 µg/mL
- % Survival ([3]; QD 2.5 mpk): 75%
- % Survival ([3]; QD 5 mpk): 100%
